Test results reported in US8470384B2, “Oxalamide derivative as umami flavouring agent” (Givaudan S.A., priority 2010, dated 2013).

Columns and labels:
[1] = tested on: professional panel composed of 2 women and 3 men; test: Tasting of 0.3% NaCl solutions by a professional panel (Example 2); type: in vivo, human
Experimental: (§1) Two solutions were prepared:
A—a solution of 0.3% NaCl and 0.05% MSG
B—a solution of 0.3% NaCl and 3 ppm of N1-geranyl-N2-(2-(pyridin-2-yl)ethyl)oxalamide.
The samples were tasted by a professional panel composed of 2 women and 3 men aged between 30 and 60. The panel agreed that both solutions tasted umami.

[2] = tested on: professional panel composed of 2 women and 3 men; test: Tasting of NaCl/MSG/ribonucleotide solutions with reduced MSG by a professional panel (Example 3); type: in vivo, human; conditions: solution B (0.5% NaCl, 0.05% MSG, 0.010% ribonucleotide mixture, 1.5 ppm compound) vs solution A (0.5% NaCl, 0.15% MSG, 0.025% ribonucleotide mixture)
Experimental: as §1
A—a solution of 0.5% NaCl, 0.15% MSG and 0.025% Ribonucleotide mixture
B—a solution of 0.5% NaCl, 0.05% MSG, 0.010% Ribonucleotide mixture and 1.5 ppm of N1-geranyl-N2-(2-(pyridin-2-yl)ethyl)oxalamide.
The samples were tasted by a professional panel composed of 2 women and 3 men aged between 30 and 60.

[3] = General finding on umami flavour quality; conditions: very low dosages; in contrast to many other non-MSG umami flavourants
[4] = solution B (0.3% NaCl, 3 ppm compound) vs solution A (0.3% NaCl, 0.05% MSG)

SMILES: N[C@@H](CCC(=O)O)C(=O)[O-].[Na+] [MSG, monosodium glutamate, reference compound]
- umami taste ([1]; solution A: 0.3% NaCl and 0.05% MSG): tasted umami

SMILES: CC(C)=CCC/C(C)=C/CNC(=O)C(=O)NCCc1ccccn1 [N1-geranyl-N2-(2-(pyridin-2-yl)ethyl)oxalamide]
- umami strength compared with solution A [2]: equal umami strength
- further taste attributes compared with solution A [1, 4]: more succulence and sweetness and had more lingering savoury notes
- umami strength compared with solution A [1, 4]: slightly stronger umami
- umami taste ([1]; solution B: 0.3% NaCl and 3 ppm of compound): tasted umami

SMILES: CC(C)=CCC/C(C)=C/CNC(=O)C(=O)NCCc1ccccn1 [the Umami Compound]
- umami flavour and its quality [3]: clean, non-artificial taste
